How the values were obtained:
Type in all cases: biochemical
p110β/p85α = p110β/p85α (Homo sapiens, UniProt P42338); experiment: Transcreener KINASE Assay, kinase inhibition of p110β/p85α; conditions: for PI3Kβ IH % @ 1 uM: 1 uM test compound; for IC50: read-out: PI3Kβ IC50
How it was run: (§1)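 ADP production was read by fluorescence polarization immunoassay (60 min detection step) after an 80 min room-temperature reaction of p110/p85α enzyme, compound in 2% DMSO, and PIP2/ATP solution (30 uM/10 uM as added) in HEPES buffer with MgCl2 and DTT. IC50s came from inhibition versus the DMSO control.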

p110δ/p85α = p110δ/p85α (Homo sapiens, UniProt O00329); experiment: Transcreener KINASE Assay, kinase inhibition of p110δ/p85α; conditions: for PI3Kδ IH % @ 1 uM: 1 uM test compound; for IC50: read-out: PI3Kδ IC50
How it was run: as §1

p110γ = p110γ (Homo sapiens, UniProt P48736); experiment: Transcreener KINASE Assay, kinase inhibition of p110γ; conditions: for PI3Kγ IH % @ 1 uM: 1 uM test compound; for IC50: read-out: PI3Kγ IC50
How it was run: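 ADP-detecting fluorescence polarization immunoassay run as two-step endpoint: kinase reaction for 80 min, detection for 60 min, both at room temperature. Enzymes are recombinant p110 isoforms with p85α, except p110γ. IC50s derived from fitted inhibition curves.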

p110γ, sequence (P48736 whole entry, canonical isoform): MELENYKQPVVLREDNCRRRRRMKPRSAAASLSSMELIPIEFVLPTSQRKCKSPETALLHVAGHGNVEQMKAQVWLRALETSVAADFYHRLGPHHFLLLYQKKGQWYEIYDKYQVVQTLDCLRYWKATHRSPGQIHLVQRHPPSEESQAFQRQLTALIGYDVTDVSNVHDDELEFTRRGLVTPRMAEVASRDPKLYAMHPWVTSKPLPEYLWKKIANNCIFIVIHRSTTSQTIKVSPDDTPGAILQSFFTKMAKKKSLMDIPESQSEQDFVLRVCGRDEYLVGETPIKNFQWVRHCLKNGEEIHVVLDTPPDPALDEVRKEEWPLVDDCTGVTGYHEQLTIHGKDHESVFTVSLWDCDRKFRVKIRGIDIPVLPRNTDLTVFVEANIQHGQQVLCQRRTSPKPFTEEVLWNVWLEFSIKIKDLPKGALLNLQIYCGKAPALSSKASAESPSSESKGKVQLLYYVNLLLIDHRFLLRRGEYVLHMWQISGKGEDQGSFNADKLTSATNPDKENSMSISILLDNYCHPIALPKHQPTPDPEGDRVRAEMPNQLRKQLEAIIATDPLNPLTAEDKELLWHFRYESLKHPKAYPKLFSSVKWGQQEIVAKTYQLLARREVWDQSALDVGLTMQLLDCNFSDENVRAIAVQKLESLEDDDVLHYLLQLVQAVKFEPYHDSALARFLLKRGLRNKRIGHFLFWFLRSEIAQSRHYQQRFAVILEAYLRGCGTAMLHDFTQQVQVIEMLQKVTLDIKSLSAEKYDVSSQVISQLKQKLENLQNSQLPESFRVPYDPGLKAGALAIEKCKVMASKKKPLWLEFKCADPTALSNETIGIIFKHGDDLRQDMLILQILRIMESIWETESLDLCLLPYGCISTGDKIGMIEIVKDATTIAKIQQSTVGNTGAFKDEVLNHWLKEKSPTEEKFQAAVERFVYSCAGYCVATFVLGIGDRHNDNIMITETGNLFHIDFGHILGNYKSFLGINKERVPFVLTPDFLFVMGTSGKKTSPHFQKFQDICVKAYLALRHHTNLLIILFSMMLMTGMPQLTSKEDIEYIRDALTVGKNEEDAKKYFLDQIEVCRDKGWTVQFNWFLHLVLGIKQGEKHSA
p110β/p85α, sequence (P42338 whole entry): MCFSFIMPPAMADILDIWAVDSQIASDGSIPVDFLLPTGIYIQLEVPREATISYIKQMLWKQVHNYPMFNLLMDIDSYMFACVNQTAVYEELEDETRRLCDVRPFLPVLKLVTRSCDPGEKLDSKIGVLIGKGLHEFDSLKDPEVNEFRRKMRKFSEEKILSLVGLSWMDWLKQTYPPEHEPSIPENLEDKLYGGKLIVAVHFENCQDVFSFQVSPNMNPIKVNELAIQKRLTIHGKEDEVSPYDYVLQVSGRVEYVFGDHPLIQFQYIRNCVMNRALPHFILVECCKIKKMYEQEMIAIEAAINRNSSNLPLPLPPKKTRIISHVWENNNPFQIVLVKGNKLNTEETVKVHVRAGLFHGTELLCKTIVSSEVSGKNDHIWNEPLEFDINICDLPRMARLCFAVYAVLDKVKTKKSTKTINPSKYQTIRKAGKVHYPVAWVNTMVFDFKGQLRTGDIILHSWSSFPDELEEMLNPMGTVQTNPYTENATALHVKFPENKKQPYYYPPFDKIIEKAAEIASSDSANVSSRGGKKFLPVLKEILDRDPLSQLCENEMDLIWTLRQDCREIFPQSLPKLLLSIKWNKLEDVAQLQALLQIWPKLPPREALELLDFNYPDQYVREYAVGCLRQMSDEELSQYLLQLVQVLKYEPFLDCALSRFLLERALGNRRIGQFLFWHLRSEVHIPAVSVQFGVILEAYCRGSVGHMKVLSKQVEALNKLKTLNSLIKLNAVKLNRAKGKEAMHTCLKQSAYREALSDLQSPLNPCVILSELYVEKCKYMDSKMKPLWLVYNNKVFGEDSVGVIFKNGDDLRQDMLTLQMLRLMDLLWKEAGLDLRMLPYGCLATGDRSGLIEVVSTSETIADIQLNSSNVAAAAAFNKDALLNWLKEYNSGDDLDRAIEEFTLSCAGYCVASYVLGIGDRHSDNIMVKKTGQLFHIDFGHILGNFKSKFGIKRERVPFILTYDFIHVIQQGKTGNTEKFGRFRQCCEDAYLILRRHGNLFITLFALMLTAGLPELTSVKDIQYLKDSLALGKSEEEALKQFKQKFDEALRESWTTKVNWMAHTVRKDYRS
p110β/p85α, sequence (P27986 2-724 partner): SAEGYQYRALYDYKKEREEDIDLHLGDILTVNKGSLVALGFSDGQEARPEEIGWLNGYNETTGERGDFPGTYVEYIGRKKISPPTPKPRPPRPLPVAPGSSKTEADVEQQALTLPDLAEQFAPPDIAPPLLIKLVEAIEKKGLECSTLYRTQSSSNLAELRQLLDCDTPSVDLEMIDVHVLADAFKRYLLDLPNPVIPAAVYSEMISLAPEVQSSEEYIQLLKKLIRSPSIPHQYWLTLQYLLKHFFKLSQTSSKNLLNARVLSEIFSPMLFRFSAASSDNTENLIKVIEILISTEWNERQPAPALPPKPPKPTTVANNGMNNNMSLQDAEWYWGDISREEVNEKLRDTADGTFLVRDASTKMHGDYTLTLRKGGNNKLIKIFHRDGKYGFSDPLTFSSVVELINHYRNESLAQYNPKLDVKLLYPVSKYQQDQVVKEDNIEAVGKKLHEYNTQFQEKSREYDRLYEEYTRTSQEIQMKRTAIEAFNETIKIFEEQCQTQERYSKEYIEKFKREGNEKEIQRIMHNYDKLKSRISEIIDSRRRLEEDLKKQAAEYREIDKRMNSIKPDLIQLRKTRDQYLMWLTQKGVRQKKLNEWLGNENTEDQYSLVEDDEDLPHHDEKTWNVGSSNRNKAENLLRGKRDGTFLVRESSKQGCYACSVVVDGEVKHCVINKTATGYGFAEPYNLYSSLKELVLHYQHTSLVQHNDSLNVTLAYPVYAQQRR
p110δ/p85α, sequence (O00329 whole entry): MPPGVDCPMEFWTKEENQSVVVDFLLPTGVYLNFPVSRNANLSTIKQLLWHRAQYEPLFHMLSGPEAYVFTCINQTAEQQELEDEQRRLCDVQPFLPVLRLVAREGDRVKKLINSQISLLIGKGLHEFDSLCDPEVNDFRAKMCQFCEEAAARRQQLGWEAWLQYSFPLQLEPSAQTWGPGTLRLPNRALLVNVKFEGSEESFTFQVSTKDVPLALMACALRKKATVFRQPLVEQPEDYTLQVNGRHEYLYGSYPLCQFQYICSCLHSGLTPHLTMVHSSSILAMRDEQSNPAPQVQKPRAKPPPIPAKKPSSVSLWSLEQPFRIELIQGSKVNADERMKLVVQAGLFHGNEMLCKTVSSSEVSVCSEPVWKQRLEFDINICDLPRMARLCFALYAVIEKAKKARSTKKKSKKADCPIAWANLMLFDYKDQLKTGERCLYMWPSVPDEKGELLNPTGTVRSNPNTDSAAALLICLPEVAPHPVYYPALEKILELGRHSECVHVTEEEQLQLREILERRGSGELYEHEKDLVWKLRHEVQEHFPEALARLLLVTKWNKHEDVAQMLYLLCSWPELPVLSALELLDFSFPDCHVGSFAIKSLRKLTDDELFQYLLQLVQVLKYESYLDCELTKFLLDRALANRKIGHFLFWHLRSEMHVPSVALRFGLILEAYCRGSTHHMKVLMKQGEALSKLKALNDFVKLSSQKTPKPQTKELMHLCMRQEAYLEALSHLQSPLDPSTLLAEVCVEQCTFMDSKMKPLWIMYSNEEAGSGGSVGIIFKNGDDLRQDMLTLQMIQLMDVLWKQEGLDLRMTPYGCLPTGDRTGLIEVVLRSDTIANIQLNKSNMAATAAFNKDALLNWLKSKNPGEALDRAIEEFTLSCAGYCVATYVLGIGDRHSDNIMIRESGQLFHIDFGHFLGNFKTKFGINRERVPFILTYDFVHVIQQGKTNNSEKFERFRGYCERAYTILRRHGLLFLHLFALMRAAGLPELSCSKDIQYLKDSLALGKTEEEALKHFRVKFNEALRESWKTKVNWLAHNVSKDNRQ
p110δ/p85α, sequence (P27986 whole entry partner): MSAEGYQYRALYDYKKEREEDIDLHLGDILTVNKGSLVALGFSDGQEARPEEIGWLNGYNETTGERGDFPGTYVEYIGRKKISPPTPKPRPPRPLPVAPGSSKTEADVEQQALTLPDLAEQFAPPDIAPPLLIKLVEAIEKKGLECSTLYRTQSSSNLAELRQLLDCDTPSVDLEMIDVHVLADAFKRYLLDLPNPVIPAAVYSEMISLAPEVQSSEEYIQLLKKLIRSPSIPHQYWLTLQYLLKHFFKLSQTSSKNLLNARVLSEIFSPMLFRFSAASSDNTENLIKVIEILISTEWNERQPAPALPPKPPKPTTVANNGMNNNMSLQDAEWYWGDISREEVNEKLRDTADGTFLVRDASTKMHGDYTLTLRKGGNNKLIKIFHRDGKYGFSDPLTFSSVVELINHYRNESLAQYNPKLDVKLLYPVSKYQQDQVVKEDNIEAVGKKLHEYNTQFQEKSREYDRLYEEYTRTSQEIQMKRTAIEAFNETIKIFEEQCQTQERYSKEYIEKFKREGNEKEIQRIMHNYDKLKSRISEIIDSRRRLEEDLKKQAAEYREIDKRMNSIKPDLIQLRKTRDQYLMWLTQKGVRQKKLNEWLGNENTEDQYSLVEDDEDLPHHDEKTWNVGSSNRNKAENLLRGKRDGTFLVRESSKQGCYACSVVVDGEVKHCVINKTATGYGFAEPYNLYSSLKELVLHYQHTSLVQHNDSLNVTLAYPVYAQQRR

Structure (SMILES) | PI3Kβ IH % @ 1 uM (p110β/p85α) [%] | IC50 (p110β/p85α) [nM] | PI3Kδ IH % @ 1 uM (p110δ/p85α) [%] | IC50 (p110δ/p85α) [nM] | PI3Kγ IH % @ 1 uM (p110γ) [%] | IC50 (p110γ) [nM]
N#Cc1cnc(N)nc1N1CC(=O)C[C@H]1c1nn2ccc(Cl)c2c(=O)n1-c1cccc(F)c1 [Compound 404] | 31.1 |  | 93.7 | 3 | 95.6 | 10
C[C@H]1CN(c2nc(N)ncc2C#N)C1c1nn2ccc(Cl)c2c(=O)n1-c1ccc(F)cc1 (stereo partly drawn) [Compound 432] | 43.2 |  | 81.3 | 160 | 89.0 | 9
CC(=O)c1cnc(N)nc1NC(C)c1cn2ccc(Cl)c2c(=O)n1-c1cccc(F)c1 (stereo not drawn) [Compound 435] | 91.2 | 14 | 99.7 | 3 | 83.7 | 
Cc1nc(N)nc(N2C[C@H](C)C2c2nn3ccc(Cl)c3c(=O)n2-c2ccccc2)c1C#N (stereo partly drawn) [Compound 437] | 97.1 | 27 | 96.3 | 1 | 91.3 | 2
CC(=O)c1cnc(N)nc1N1C[C@H](C)C1c1nn2ccc(F)c2c(=O)n1-c1ccc(F)cc1 (stereo partly drawn) [Compound 438] | 79.3 | 273 | 91.2 | 23 | 91.4 | 6
Cc1nc(N)nc(N2C[C@H](C)C2c2nn3ccc(Cl)c3c(=O)n2-c2ccc(F)cc2)c1C#N (stereo partly drawn) [Compound 439] | 93.0 | 22 | 98.1 | 2 | 92.4 | 3
Cc1nc(N)nc(N2CC[C@H]2c2nn3ccc(Cl)c3c(=O)n2-c2cccc(F)c2)c1C#N [Compound 441] | 56.2 |  | 95.5 | 2 | 97.7 | 14
Cc1nc(N)nc(N2CC[C@H]2c2nn3ccc(Cl)c3c(=O)n2-c2ccc(F)cc2)c1C#N [Compound 442] | 76.1 |  | 94.2 | 12 | 94.6 | 1
CC(=O)c1cnc(N)nc1N[C@@H](C)c1cc2ncc(Cl)n2c(=O)n1-c1ccccc1 [Compound 447, (S)-7-(1-((5-acetyl-2-aminopyrimidin-4-yl)amino)ethyl)-3-chloro-6-phenylimidazo[1,2-c]pyrimidin-5(6H)-one] | 95.8 | 22 | 99.5 | 0.4 | >100 | 4
Cc1nc(N)nc(N2C[C@H](C)[C@H]2c2nn3ccc(F)c3c(=O)n2-c2ccc(F)cc2)c1C#N [Compound 463] | 89.6 | 50 | >100 | 4 | >100 | 5
CC1(C)CN(c2nc(N)ncc2Cl)C1c1nn2ccc(Cl)c2c(=O)n1-c1ccccc1 (stereo not drawn) [Compound 466] | 45.4 |  | >100 | 20 | 93.9 | 48

Continued, values first:

PI3Kβ IH % @ 1 uM (p110β/p85α) [%] | IC50 (p110β/p85α) [nM] | PI3Kδ IH % @ 1 uM (p110δ/p85α) [%] | IC50 (p110δ/p85α) [nM] | PI3Kγ IH % @ 1 uM (p110γ) [%] | IC50 (p110γ) [nM] | Structure (SMILES)
52.0 | 2350 | >100 | 11 | 96.5 | 13 | C[S@@+]([O-])c1c[nH]c2ncnc(N3CCC[C@H]3c3nn4ccc(F)c4c(=O)n3-c3ccccc3)c12 [Compound 397, 5-fluoro-2-((S)-1-(5-((R)-methylsulfinyl)-7H-pyrrolo[2,3-d]pyrimidin-4-yl)pyrrolidin-2-yl)-3-phenylpyrrolo[2,1-f][1,2,4]triazin-4(3H)-one]
22.6 |  | 99.1 | 25 | >100 | 18 | CC(=O)c1c(C)nc(N)nc1N1CC[C@H]1c1nn2ccc(Cl)c2c(=O)n1-c1ccccc1 [Compound 398]
3.5 |  | 35.1 |  | 70.3 |  | C[S+]([O-])c1cnc(N)nc1N1CC[C@H]1c1nn2ccc(Cl)c2c(=O)n1-c1ccccc1 (stereo partly drawn) [Compound 399]
22.2 |  | >100 | 12 | 70.4 | 81 | O=C1C[C@@H](c2nn3ccc(F)c3c(=O)n2-c2ccccc2)N(c2ncnc3[nH]cnc23)C1 [Compound 400]
46.7 |  | >100 | 4 | 67.8 | 189 | N#Cc1cnc(N)nc1N1CC(=O)C[C@H]1c1nn2ccc(F)c2c(=O)n1-c1ccccc1 [Compound 401]
21.7 |  | 93.4 | 67 | 65.8 |  | CC(=O)c1c[nH]c2ncnc(N3CC(=O)C[C@H]3c3nn4ccc(Cl)c4c(=O)n3-c3ccccc3)c12 [Compound 402]
71.7 | 123 | 98.1 | 1 | 93.1 | 7 | N#Cc1cnc(N)nc1N1CC(=O)C[C@H]1c1nn2ccc(Cl)c2c(=O)n1-c1ccccc1 [Compound 403]
86.5 | 332 | >100 | 3 | 92.3 | 2 | CC(=O)c1c[nH]c2ncnc(N[C@H](C)c3cn4ccc(F)c4c(=O)n3-c3ccccc3)c12 [Compound 405, (R)-3-(1-((5-acetyl-7H-pyrrolo[2,3-d]pyrimidin-4-yl)amino)ethyl)-8-fluoro-2-phenylpyrrolo[1,2-a]pyrazin-1(2H)-one]
7.7 |  | 90.0 | 73 | 35.2 |  | CC(=O)c1c[nH]c2ncnc(N[C@@H](C)c3cn4ccc(F)c4c(=O)n3-c3ccccc3)c12 [Compound 406, (S)-3-(1-((5-acetyl-7H-pyrrolo[2,3-d]pyrimidin-4-yl)amino)ethyl)-8-fluoro-2-phenylpyrrolo[1,2-a]pyrazin-1(2H)-one]
28.1 |  | 93.9 | 13 | 87.3 | 52 | C[C@H]1CN(c2nc(N)ncc2C#N)C1c1nn2ccc(F)c2c(=O)n1-c1ccccc1 (stereo partly drawn) [Compound 430]
20.3 |  | 95.2 | 11 | 95.8 | 17 | CC(=O)c1cnc(N)nc1N1CC[C@H]1c1nn2ccc(Cl)c2c(=O)n1-c1cccc(F)c1 [Compound 440]
22.3 |  | 77.5 | 240 | 4.3 |  | CC(=O)c1c[nH]c2ncnc(N3CC(=O)C[C@H]3c3nn4ccc(F)c4c(=O)n3-c3ccccc3)c12 [Compound 445]
20.1 |  | 85.8 | 319 | 40.0 |  | CC(=O)c1cnc(N)nc1N1CC(=O)C[C@H]1c1nn2ccc(F)c2c(=O)n1-c1ccccc1 [Compound 446]
33.0 |  | >100 | 5 | 80.6 | 138 | C[C@H]1CN(c2nc(N)ncc2Cl)[C@@H]1c1nn2ccc(F)c2c(=O)n1-c1ccccc1 [Compound 464]
45.0 |  | >100 | 8 | 94.1 | 23 | C[C@H]1CN(c2nc(N)ncc2Cl)[C@@H]1c1nn2ccc(Cl)c2c(=O)n1-c1ccccc1 [Compound 465]

— patent publication US20150307520A1, “NOVEL HETEROARYL AND HETEROCYCLE COMPOUNDS, COMPOSITIONS AND METHODS THEREOF” (HUTCHISON MEDIPHARMA LIMITED, priority 2012, published 2015)
